What was measured:
Format in all cases: cell-based
[1] = tested on: mixed Klebsiella pneumoniae (ATCC 4352) and Enterobacter gergoviae (ATCC 33028); test: CTFA-type challenge test, mixed K. pneumoniae + E. gergoviae inoculum; details: Make-up Remover at pH 8.1 with 0.83% Benzyl Alcohol
Text: (§1) CTFA Challenge Test Procedure: A challenge protocol similar to the CTFA method was followed to assess efficacy against a broad spectrum of microorganisms. The five separate inocula were: Staphylococcus aureus (ATCC 6538), mixed Pseudomonas aeruginosa (ATCC 9027) and Burkholderia cepacia (ATCC 25416), mixed Klebsiella pneumoniae (ATCC 4352) and Enterobacter gergoviae (ATCC 33028), Candida albicans (ATCC 10231), and a mixture of molds: Aspergillus niger (ATCC 16404) and 2 Penicillium sp. isolated from cosmetic products. Samples (35 grams each) were inoculated with approximately 2,000,000 bacteria per gram or 100,000 yeast cells or mold spores per gram. Individual challenges were prepared from overnight slants of bacteria and yeast cultures and from heavily sporulating mold cultures, 7 to 10 days old. All samples were plated quantitatively for viable organisms after 24 hours and weekly for up to 4 weeks. Samples inoculated with mold spores were also plated after 48 hours. Samples were re-challenged after four weeks (or sooner where appropriate) and the same sampling regime followed.
(§2) Recommended “Pass” Criteria: CTFA recommends at least a 99.9% reduction of vegetative bacteria and at least a 90% reduction of yeasts and molds within 7 days following each challenge with no increase in count thereafter.
(§3) The preservative concentrates were added to these formulations to give a final concentration of 1%. […]

[2] = tested on: mixed Pseudomonas aeruginosa (ATCC 9027) and Burkholderia cepacia (ATCC 25416); test: CTFA-type challenge test, mixed P. aeruginosa + B. cepacia inoculum; details: Make-up Remover at pH 8.1 with 0.83% Benzyl Alcohol
Text: as §1, §2, §3

[3] = tested on: mixture of molds: Aspergillus niger (ATCC 16404) and 2 Penicillium sp.; test: CTFA-type challenge test, mixed mold inoculum; details: for Colony Forming Units per Gram (CFU/g), Mixed Molds: Make-up Remover at pH 8.1 with 0.83% Benzyl Alcohol
Text: as §1, §2, §3
To determine if the unexpected activity of ECT 4 at high pH (8.1) can be attributed solely to the activity of benzyl alcohol the high pH make-up remover was preserved with 1% ECT4 and with 0.83% benzyl alcohol (equivalent amount found in 1% ECT4).

[4] = tested on: Staphylococcus aureus (ATCC 6538); test: CTFA-type challenge test, S. aureus inoculum; details: Make-up Remover at pH 8.1 with 0.83% Benzyl Alcohol
[5] = tested on: mixed Klebsiella pneumoniae (ATCC 4352) and Enterobacter gergoviae (ATCC 33028); test: CTFA-type challenge test, mixed K. pneumoniae + E. gergoviae inoculum; details: Make-up Remover at pH 8.1 with 0.83% Benzyl Alcohol; Challenge #2; 48 Hours
[6] = tested on: mixed Pseudomonas aeruginosa (ATCC 9027) and Burkholderia cepacia (ATCC 25416); test: CTFA-type challenge test, mixed P. aeruginosa + B. cepacia inoculum; details: Make-up Remover at pH 8.1 with 0.83% Benzyl Alcohol; Challenge #2; 48 Hours
[7] = tested on: Candida albicans (ATCC 10231); test: CTFA-type challenge test, C. albicans inoculum; details: Make-up Remover at pH 8.1 with 0.83% Benzyl Alcohol
[8] = High pH Make-up Remover (pH 8.1), 0.83% benzyl alcohol

In the case of OCc1ccccc1 [benzyl alcohol], the “Colony Forming Units per Gram (CFU/g), K. pneumoniae + E. gergoviae” value ([1]; Challenge #1, 7 Days) was under 10 CFU/g, the “Colony Forming Units per Gram (CFU/g), K. pneumoniae + E. gergoviae” value ([1]; Challenge #1, 14 Days) was under 10 CFU/g and the “Colony Forming Units per Gram (CFU/g), K. pneumoniae + E. gergoviae” value ([1]; Challenge #1, 21 Days) was under 10 CFU/g. For the same molecule, the “Colony Forming Units per Gram (CFU/g), K. pneumoniae + E. gergoviae” value ([1]; Challenge #1, 24 Hours) was under 10 CFU/g, the “Colony Forming Units per Gram (CFU/g), K. pneumoniae + E. gergoviae” value ([1]; Challenge #1, 28 Days) was under 10 CFU/g and the “Colony Forming Units per Gram (CFU/g), K. pneumoniae + E. gergoviae” value ([1]; Challenge #2, 7 Days) was under 10 CFU/g. The “Colony Forming Units per Gram (CFU/g), K. pneumoniae + E. gergoviae” value ([1]; Challenge #2, 14 Days) was under 10 CFU/g, the “Colony Forming Units per Gram (CFU/g), K. pneumoniae + E. gergoviae” value ([1]; Challenge #2, 21 Days) was under 10 CFU/g and the “Colony Forming Units per Gram (CFU/g), K. pneumoniae + E. gergoviae” value ([1]; Challenge #2, 28 Days) was under 10 CFU/g. The “Colony Forming Units per Gram (CFU/g), P. aeruginosa + B. cepacia” value ([2]; Challenge #1, 7 Days) was under 10 CFU/g, the “Colony Forming Units per Gram (CFU/g), P. aeruginosa + B. cepacia” value ([2]; Challenge #1, 14 Days) was under 10 CFU/g and the “Colony Forming Units per Gram (CFU/g), P. aeruginosa + B. cepacia” value ([2]; Challenge #1, 21 Days) was under 10 CFU/g. The “Colony Forming Units per Gram (CFU/g), P. aeruginosa + B. cepacia” value ([2]; Challenge #1, 24 Hours) was under 10 CFU/g, the “Colony Forming Units per Gram (CFU/g), P. aeruginosa + B. cepacia” value ([2]; Challenge #1, 28 Days) was under 10 CFU/g and the “Colony Forming Units per Gram (CFU/g), P. aeruginosa + B. cepacia” value ([2]; Challenge #2, 7 Days) was under 10 CFU/g. For the same molecule, the “Colony Forming Units per Gram (CFU/g), P. aeruginosa + B. cepacia” value ([2]; Challenge #2, 14 Days) was under 10 CFU/g, the “Colony Forming Units per Gram (CFU/g), P. aeruginosa + B. cepacia” value ([2]; Challenge #2, 21 Days) was under 10 CFU/g and the “Colony Forming Units per Gram (CFU/g), P. aeruginosa + B. cepacia” value ([2]; Challenge #2, 28 Days) was under 10 CFU/g. For the same molecule, the “CTFA recommendations for a minimum of 90% mold reduction in 7 days” value [3, 8] was “did not meet CTFA recommendations”, the “Efficacy against the mixed mold challenge” value [3, 8] was “not sufficiently efficacious” and the “Colony Forming Units per Gram (CFU/g), Mixed Molds” value ([3]; Challenge #1, 7 Days) was 3.0 × 10^4 CFU/g. The “Colony Forming Units per Gram (CFU/g), Mixed Molds” value ([3]; Challenge #1, 14 Days) was 8.0 × 10^4 CFU/g, the “Colony Forming Units per Gram (CFU/g), Mixed Molds” value ([3]; Challenge #1, 21 Days) was 1.5 × 10^4 CFU/g and the “Colony Forming Units per Gram (CFU/g), Mixed Molds” value ([3]; Challenge #1, 24 Hours) was 2.1 × 10^5 CFU/g. The “Colony Forming Units per Gram (CFU/g), Mixed Molds” value ([3]; Challenge #1, 28 Days) was 5.1 × 10^3 CFU/g, the “Colony Forming Units per Gram (CFU/g), Mixed Molds” value ([3]; Challenge #1, 48 Hours) was 1.2 × 10^5 CFU/g and the “Colony Forming Units per Gram (CFU/g), Mixed Molds” value ([3]; Challenge #2, 7 Days) was 3.4 × 10^3 CFU/g. For the same molecule, the “Colony Forming Units per Gram (CFU/g), Mixed Molds” value ([3]; Challenge #2, 14 Days) was 3.6 × 10^3 CFU/g, the “Colony Forming Units per Gram (CFU/g), Mixed Molds” value ([3]; Challenge #2, 21 Days) was 9.0 × 10^3 CFU/g and the “Colony Forming Units per Gram (CFU/g), Mixed Molds” value ([3]; Challenge #2, 28 Days) was 4.0 × 10^2 CFU/g. For the same molecule, the “Colony Forming Units per Gram (CFU/g), Mixed Molds” value ([3]; Challenge #2, 48 Hours) was 3.8 × 10^3 CFU/g, the “Colony Forming Units per Gram (CFU/g), S. aureus” value ([4]; Challenge #1, 7 Days) was under 10 CFU/g and the “Colony Forming Units per Gram (CFU/g), S. aureus” value ([4]; Challenge #1, 14 Days) was under 10 CFU/g. The “Colony Forming Units per Gram (CFU/g), S. aureus” value ([4]; Challenge #1, 21 Days) was under 10 CFU/g, the “Colony Forming Units per Gram (CFU/g), S. aureus” value ([4]; Challenge #1, 24 Hours) was under 10 CFU/g and the “Colony Forming Units per Gram (CFU/g), S. aureus” value ([4]; Challenge #1, 28 Days) was under 10 CFU/g. For the same molecule, the “Colony Forming Units per Gram (CFU/g), S. aureus” value ([4]; Challenge #2, 7 Days) was under 10 CFU/g, the “Colony Forming Units per Gram (CFU/g), S. aureus” value ([4]; Challenge #2, 14 Days) was under 10 CFU/g and the “Colony Forming Units per Gram (CFU/g), S. aureus” value ([4]; Challenge #2, 21 Days) was under 10 CFU/g. The “Colony Forming Units per Gram (CFU/g), S. aureus” value ([4]; Challenge #2, 28 Days) was under 10 CFU/g, the “Colony Forming Units per Gram (CFU/g), S. aureus” value ([4]; Challenge #2, 48 Hours) was under 10 CFU/g and the “Colony Forming Units per Gram (CFU/g), K. pneumoniae + E. gergoviae” value [5] was under 10 CFU/g. For the same molecule, the “Colony Forming Units per Gram (CFU/g), P. aeruginosa + B. cepacia” value [6] was under 10 CFU/g, the “Colony Forming Units per Gram (CFU/g), C. albicans” value ([7]; Challenge #1, 7 Days) was 1.6 × 10^2 CFU/g and the “Colony Forming Units per Gram (CFU/g), C. albicans” value ([7]; Challenge #1, 14 Days) was under 10 CFU/g. The “Colony Forming Units per Gram (CFU/g), C. albicans” value ([7]; Challenge #1, 21 Days) was under 10 CFU/g, the “Colony Forming Units per Gram (CFU/g), C. albicans” value ([7]; Challenge #1, 24 Hours) was 3.1 × 10^4 CFU/g and the “Colony Forming Units per Gram (CFU/g), C. albicans” value ([7]; Challenge #1, 28 Days) was under 10 CFU/g. The “Colony Forming Units per Gram (CFU/g), C. albicans” value ([7]; Challenge #2, 7 Days) was under 10 CFU/g, the “Colony Forming Units per Gram (CFU/g), C. albicans” value ([7]; Challenge #2, 14 Days) was under 10 CFU/g and the “Colony Forming Units per Gram (CFU/g), C. albicans” value ([7]; Challenge #2, 21 Days) was under 10 CFU/g. The “Colony Forming Units per Gram (CFU/g), C. albicans” value ([7]; Challenge #2, 28 Days) was under 10 CFU/g and the “Colony Forming Units per Gram (CFU/g), C. albicans” value ([7]; Challenge #2, 48 Hours) was <1.0 × 10^2 CFU/g.
